Test results reported in patent US20240261306A1, “FORMULATIONS OF PSILOCYBIN” (CYBIN IRL LIMITED, priority 2021, published 2024).
Marks after values point to notes of the source that are not given here.

What was measured:
[1] = XRPD of freeze-dried solid dispersions and admixtures; assay type: physicochemical; conditions: as prepared, solid form of psilocybin (PY) in freeze-dried dispersion, physical mixture or starting material
Experimental: The samples were prepared in silicon low background holders using light manual pressure to keep the sample surface flat and level with the reference surface of the sample holder. The single crystal Si low background holder has a circular recess (10 mm diameter and about 0.2 mm depth) that holds the sample.
The Rigaku Smart-Lab diffraction system used was configured for Bragg-Brentano reflection geometry using a line source X-ray beam. The Bragg-Brentano geometry was controlled by passive divergence and receiving slits with the sample itself acting as the focusing component for the optics. The figures were created using PlotMon V2.1.1.0.
High-resolution XRPD analysis was performed using Rigaku Smart-Lab diffraction system configured for Debye-Scherrer transmission geometry. The Debye-Scherrer convergent beam geometry utilizes a curved x-ray mirror to focus the incident beam through the sample and onto the detector plane. The axial divergence of the X-ray beam was controlled by 5.0° Soller slits in both the incident and diffracted beam paths.
Freeze-dried solid dispersions of Examples 1-5, and corresponding Reference Examples, were characterized using X-ray powder diffraction (XRPD).

[2] = XRPD and mDSC characterization of spray dried solid dispersions (t=0); assay type: physicochemical; conditions: Characterization (t = 0)
Experimental: X-ray power diffraction (XRPD): XRPD patterns were collected on a Bruker AXS D2 diffractometer using Cu Kα radiation (30 kV, 10 mA), θ-θ geometry, using a LynxEye detector from 5-42° […].
The details of the data collection are: • Angular range: 5 to 42° 2θ • Step size: 0.024° 2θ • Collection time: 0.1 seconds per step.
Samples were run under ambient conditions and prepared as flat plate specimens using powder without grinding. Approximately 1-2 mg of the sample was lightly pressed on a silicon wafer to obtain a flat surface.
Modulated differential scanning calorimetry (mDSC): TOPEM® is a temperature modulated DSC method which differs from conventional DSC in allowing the total heat flow to be separated into reversing and non-reversing heat flow components. Such techniques help distinguish between processes or transitions that overlap or lie very close to one another. The glass transition temperature (Tg) was determined from the reversible heatflow component.
TOPEM® DSC data were collected on a Mettler DSC 3+ equipped with a 34 position auto-sampler. The instrument was calibrated for energy and temperature using certified indium. Typically, 3-5 mg of each sample, in a pin-holed aluminium pan, was heated at 2 K·min^−1 from 30° C. to 220° C. with a pulse height of 0.64 K and a pulse width 15-30 sec. A nitrogen purge at 50 mL·min^−1 was maintained over the sample. […]

Row | Compound | XRPD Results [1] | XRPD Results ([1]; listed as crystalline psilocybin starting material) | XRPD [2] | Tg ([2]; mDSC) [°C]
1 | CN(C)CCc1c[nH]c2cccc(OP(=O)(O)O)c12 [Crystalline PY starting material, 3-(2-(dimethylamino)ethyl)-1H-indol-4-yl dihydrogen phosphate] | crystalline PY (methanol solvate)^a | crystalline psilocybin methanol solvate with a small quantity of Form B | – | –
2 | CN(C)CCc1c[nH]c2cccc(OP(=O)(O)O)c12 [Psilocybin (PY), 3-(2-(dimethylamino)ethyl)-1H-indol-4-yl dihydrogen phosphate] | – | – | Amorphous | 161
